Structures can show the parent of a compound that is named as a salt.
How the values were obtained:
[1] = system: upregulation of CD11b in GROα stimulated neutrophils in human whole blood; experiment: Human whole blood assay (CD11b upregulation); format: cell-based; details: Neutrophil, inhibition of CD11b upregulation, GROα 33 nM final, flow cytometry, read-out: pIC50 (human whole blood assay) (converted)
Protocol: The whole blood assay tested the compounds' ability to inhibit the upregulation of CD11b in GROα stimulated neutrophils in human whole blood.
Blood was withdrawn by venipuncture from consented adults and poured into a Sterilin tube containing an anti-coagulant Heparin (10 uL/mL of blood). All the test compounds were dissolved in DMSO to 4 mM and serial diluted across the plate, 1 in 3 to provide 10 point dose response curves. The compounds were then diluted 100 fold in -PBS [Phosphate buffered saline (without Calcium Chloride and Magnesium Chloride)] after which, 1 uL was dispensed in 96 U bottom Costar plates using an FX.
10 uL of blood was transferred to the compound plate using a multi-channel pipette, gently tapped and incubated for 15 minutes, at 37° C. After 15 minutes, the stimulant GROα was diluted to 100 nM in 0.1% BSA (Albumin Bovine Serum)-PBS and 5 uL is dispensed across the whole plate for a final concentration of 33 nM. The plate was gently tapped and incubated further for 15 minutes at 37° C. The plate was placed on ice for 1 minute before addition of 10 uL of an antibody cocktail consisting of CD11b-FITC (40 ug/mL) purchased from BioLegend (address: Cambridge Bioscience, Munro House, Trafalgar Way, Bar Hill, Cambridge, UK) and CD16-PE purchased from BD Pharmingen (address: The Danby Building, Edmung Halley Road, Oxford Science Park, Oxford, UK) (stock concentration 100 tests, 2 mL stock volume is diluted 1 in 5). The plate was placed on ice for 1 hour in the dark. The cells were then fixed using 200 uL/well of 1×FACS (Flow Activated Cell Sorting) Lyse solution (Becton and Dickinson-BD) and on ice for 20 minutes in the dark. The plate was centrifuged at 1600 rpm for 5 minutes and re-suspended with 200 uL of ice cold PBS. This step was repeated twice and on the final step the plate was re-suspended with 50 uL of ice cold -PBS for flow Cytometric analysis.
Samples were run on a Becton and Dickinson (BD)-Acurri C6 Flow Cytometer using a HyperCyt sampling apparatus (IntelliCyt) with a flow rate 2 uL/sec. CD11b upregulation is monitored in neutrophils and identified using a combination of both side scatter and CD16 expression.

recombinant human CXCR2 = biological target: T1, recombinant human CXCR2 (Homo sapiens, UniProt P25025); experiment: CXCR2 Tango assay; format: cell-based; details: mean pIC50 of multiple test results; stimulated with 80 nM hCXCL1; reporter gene blue/green emission ratio; read-out: pIC50 (CXCR2 Tango assay) (converted)
T1 construct: TEV protease site; Gal4-VP16 transcription factor
T1 sequence (P25025 1-360): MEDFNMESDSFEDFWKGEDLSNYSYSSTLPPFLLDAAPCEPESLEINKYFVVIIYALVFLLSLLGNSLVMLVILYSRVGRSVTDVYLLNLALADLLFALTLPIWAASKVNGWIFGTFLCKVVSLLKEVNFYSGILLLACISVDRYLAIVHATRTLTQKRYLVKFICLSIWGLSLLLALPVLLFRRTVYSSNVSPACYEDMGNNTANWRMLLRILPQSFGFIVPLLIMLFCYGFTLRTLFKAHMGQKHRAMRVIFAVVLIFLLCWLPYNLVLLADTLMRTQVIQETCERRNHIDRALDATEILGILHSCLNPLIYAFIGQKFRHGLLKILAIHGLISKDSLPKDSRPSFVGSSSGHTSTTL
Outline: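 Mean pIC50 comes from sigmoidal fits of the blue/green (460/530 nm) CCF4-AM ratio, normalized between hCXCL1-stimulated and DMSO controls. Compounds in 10-point dose response were incubated overnight at 37 °C with recombinant human CXCR2 Tango cells (~10,000/well) and 80 nM hCXCL1, with reporter read-out via arrestin-TEV release of Gal4-VP16.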

IC50 [1] [µM] | IC50 (recombinant human CXCR2) [µM] | Structure (SMILES)
0.0251 to 2.51 | ≤ 0.001 | [2H]C([2H])([2H])C1(S(=O)(=O)c2c(Cl)ccc(NC(=O)N[C@@H]3CCC=C3C)c2O)CCOCC1 [Compound 70]
0.0251 to 2.51 | ≤ 0.01 | CC1=CCC[C@H]1NC(=O)Nc1ccc(Cl)c(S(=O)(=O)C2(CF)CCOCC2)c1O [Compound 72, (R)-1-(4-chloro-3-((4-(fluoromethyl)tetra-hydro-2H-pyran-4-yl)sulfonyl)-2-hydroxyphenyl)-3-(2-methylcyclopent-2-en-1-yl)urea]
0.0251 to 2.51 | ≤ 0.001 | CC1=CCC[C@H]1NC(=O)Nc1ccc(Cl)c(S(=O)(=O)C2(F)CCOCC2)c1O [Compound 75, (R)-1-(4-chloro-3-((4-fluorotetrahydro-2H-pyran-4-yl)sulfonyl)-2-hydroxyphenyl)-3-(2-methylcyclopent-2-en-1-yl)urea]
0.0251 to 2.51 | ≤ 0.001 | CC1=CCC[C@H]1NC(=O)Nc1ccc(Cl)c(S(=O)(=O)C2CC(F)(F)C2)c1O [Compound 76, (R)-1-(4-chloro-3-((3,3-difluorocyclobutyl)sulfonyl)-2-hydroxyphenyl)-3-(2-methylcyclopent-2-en-1-yl)urea trifluoroacetic acid salt]
0.0251 to 2.51 | ≤ 0.01 | CC1=CCC[C@H]1NC(=O)Nc1ccc(Cl)c(S(=O)(=O)C2CCCOC2)c1O (stereo partly drawn) [Compound 78, 1-(4-chloro-2-hydroxy-3-((tetrahydro-2H-pyran-3-yl)sulfonyl)phenyl)-3-((R)-2-methylcyclopent-2-en-1-yl)urea]
0.0251 to 2.51 | ≤ 0.001 | CC1=CCC[C@H]1NC(=O)Nc1ccc(Cl)c(S(=O)(=O)n2ccc3cccnc32)c1O [Compound 90, (R)-1-(3-((1H-pyrrolo[2,3-b]pyridin-1-yl)sulfonyl)-4-chloro-2-hydroxyphenyl)-3-(2-methylcyclopent-2-en-1-yl)urea]
0.0251 to 2.51 | ≤ 0.01 | CC1=CCC[C@H]1NC(=O)Nc1ccc(Cl)c(S(=O)(=O)N2CCN3CCC[C@@]3(C)C2)c1O [Compound 93, 1-(4-chloro-2-hydroxy-3-(((S)-8a-methylhexahydro-pyrrolo[1,2-a]pyrazin-2(1H)-yl)sulfonyl)phenyl)-3-((R)-2-methylcyclopent-2-en-1-yl)urea, trifluoroacetic acid salt]
0.0251 to 2.51 | ≤ 0.001 | CC(C)(C)S(=O)(=O)c1c(C#N)ccc(NC(=O)N[C@@H]2CCC=C2Cl)c1O [Compound 94, (R)-1-(3-(tert-butylsulfonyl)-4-cyano-2-hydroxyphenyl)-3-(2-chlorocyclopent-2-en-1-yl)urea]
0.0251 to 2.51 | ≤ 0.01 | CC1=CCCC1NC(=O)Nc1ccc(Cl)c(S(=O)(=O)C(C)(C)CF)c1O (stereo not shown) [Compound 104, 1-(4-chloro-3-((1-fluoro-2-methylpropan-2-yl)sulfonyl)-2-hydroxyphenyl)-3-(2-methylcyclopent-2-en-1-yl)urea]
0.0251 to 2.51 | ≤ 0.01 | CC1=CCCC1NC(=O)Nc1ccc(Cl)c(S(=O)(=O)C2(C)CCOCC2)c1O (stereo not shown) [Compound 107, 1-(4-chloro-2-hydroxy-3-((4-methyltetrahydro-2H-pyran-4-yl)sulfonyl)phenyl)-3-(2-methylcyclopent-2-en-1-yl)urea]
0.0251 to 2.51 | ≤ 0.01 | CC1=CCCC1NC(=O)Nc1ccc(Cl)c(S(=O)(=O)C2CCOCC2)c1O (stereo not shown) [Compound 110, 1-(4-chloro-2-hydroxy-3-((tetrahydro-2H-pyran-4-yl)sulfonyl)phenyl)-3-(2-methylcyclopent-2-en-1-yl)ureac]
0.0251 to 2.51 | ≤ 0.01 | CC1=CCCC1NC(=O)Nc1ccc(Cl)c(S(=O)(=O)N2CC(F)C2)c1O (stereo not shown) [Compound 112, 1-(4-chloro-3-((3-fluoroazetidin-1-yl)sulfonyl)-2-hydroxyphenyl)-3-(2-methylcyclopent-2-en-1-yl)urea]
0.0251 to 2.51 | ≤ 0.01 | CC1=CCCC1NC(=O)Nc1ccc(Cl)c(S(=O)(=O)N2CCC(F)(F)C2)c1O (stereo not shown) [Compound 114, 1-(4-chloro-3-((3,3-difluoropyrrolidin-1-yl)sulfonyl)-2-hydroxyphenyl)-3-(2-methylcyclopent-2-en-1-yl)urea, trifluoroacetic acid salt]
0.0251 to 2.51 | ≤ 0.001 | CCC1(S(=O)(=O)c2c(Cl)ccc(NC(=O)N[C@@H]3CCC=C3C)c2O)CCOCC1 [Compound 119, (R)-1-(4-chloro-3-((4-ethyltetrahydro-2H-pyran-4-yl)sulfonyl)-2-hydroxyphenyl)-3-(2-methylcyclopent-2-en-1-yl)urea]
0.0251 to 2.51 | ≤ 0.001 | COC[C@@H](C)S(=O)(=O)c1c(Cl)ccc(NC(=O)N[C@@H]2CCC=C2C)c1O [Compound 122, 1-(4-chloro-2-hydroxy-3-(((R)-1-methoxypropan-2-yl)sulfonyl)phenyl)-3-((R)-2-methylcyclopent-2-en-1-yl)urea]
0.0251 to 2.51 | ≤ 0.001 | CC1=CCC[C@H]1NC(=O)Nc1ccc(C#N)c(S(=O)(=O)C(C)(C)F)c1O [Compound 123, (R)-1-(4-cyano-3-((2-fluoropropan-2-yl)sulfonyl)-2-hydroxyphenyl)-3-(2-methylcyclopent-2-en-1-yl)urea]
0.0251 to 2.51 | ≤ 0.01 | CC1=CCC[C@H]1NC(=O)Nc1ccc(Cl)c(S(=O)(=O)C(F)(F)CN(C)C)c1O [Compound 136, (R)-1-(4-chloro-3-((2-(dimethylamino)-1,1-difluoroethyl)sulfonyl)-2-hydroxyphenyl)-3-(2-methylcyclopent-2-en-1-yl)urea]
0.0251 to 2.51 | ≤ 0.01 | CC1=CCC[C@H]1NC(=O)Nc1ccc(Cl)c(S(=O)(=O)N2CCN(C)CC2)c1O [Compound 141, (R)-1-(4-chloro-2-hydroxy-3-((4-methylpiperazin-1-yl)sulfonyl)phenyl)-3-(2-methylcyclopent-2-en-1-yl)urea, trifluoroacetic acid salt]
0.0251 to 2.51 | ≤ 0.01 | CC1=CCCC1NC(=O)Nc1ccc(Cl)c(S(=O)(=O)N2CCN(C)CC2)c1O (stereo not shown) [Compound 142, 1-(4-chloro-2-hydroxy-3-((4-methylpiperazin-1-yl)sulfonyl)phenyl)-3-(2-methylcyclopent-2-en-1-yl)urea, trifluoroacetic acid salt]
0.0251 to 2.51 | ≤ 0.001 | CO[C@H]1C[C@@H](S(=O)(=O)c2c(Cl)ccc(NC(=O)N[C@@H]3CCC=C3C)c2O)C1 [Compound 146, 1-(4-chloro-2-hydroxy-3-((cis-3-methoxycyclobutyl)sulfonyl)phenyl)-3-((R)-2-methylcyclopent-2-en-1-yl)urea]
0.0251 to 2.51 | ≤ 0.01 | CO[C@H]1COC[C@@H]1S(=O)(=O)c1c(Cl)ccc(NC(=O)N[C@@H]2CCC=C2C)c1O [Compound 151, 1-(4-chloro-2-hydroxy-3-(((3S,4S)-4-methoxytetrahydro-furan-3-yl)sulfonyl)phenyl)-3-((R)-2-methylcyclopent-2-en-1-yl)urea]
0.0251 to 2.51 | ≤ 0.01 | COCC(C)S(=O)(=O)c1c(Cl)ccc(NC(=O)N[C@@H]2CCC=C2C)c1O (stereo partly drawn) [Compound 158, 1-(4-chloro-2-hydroxy-3-((1-methoxypropan-2-yl)sulfonyl)phenyl)-3-((R)-2-methylcyclopent-2-en-1-yl)urea]

Structure (SMILES) | IC50 [1] [µM] | IC50 (recombinant human CXCR2) [µM]
CC1=CCC[C@H]1NC(=O)Nc1ccc(Cl)c(S(=O)(=O)C2CCN(C3CCC3)CC2)c1O [Compound 82, (R)-1-(4-chloro-3-((1-cyclobutylpiperidin-4-yl)sulfonyl)-2-hydroxyphenyl)-3-(2-methylcyclopent-2-en-1-yl)urea trifluoroacetic acid salt] | 0.0251 to 2.51 | ≤ 0.001

From patent publication US10106515B2, “1-(cyclopent-2-en-1-yl)-3-(2-hydroxy-3-(arylsulfonyl)phenyl)urea derivatives as CXCR2 inhibitors” (GLAXOSMITHKLINE INTELLECTUAL PROPERTY DEVELOPMENT LIMITED, priority 2014, dated 2018)
